Type in all cases: cell-based, human
For one data set, the system named is non-transduced cells. The experiment in a line: Viability of non-transduced cells with AP20187. The note with it: n=6. On the procedure: Suicide gene functionality was assessed by adding a small molecule synthetic homodimerizer, AP20187 (Ariad Pharmaceuticals; Cambridge, Mass.), at 10 nM final concentration the day following CD19 immunomagnetic selection. Cells were stained with annexin V and 7-amino-actinomycin (7-AAD)(BD Pharmingen) at 24 hours and analyzed by flow cytometry. Cells negative for both annexin V and 7-AAD were considered viable, cells that were annexin V positive were apoptotic, and cells that were both annexin V and 7-AAD positive were necrotic. The percentage killing induced by dimerization was corrected for baseline viability as follows: Percentage killing=100%−(% Viability in AP20187-treated cells÷% Viability in non-treated cells).
The day following immunomagnetic selection, 10 nM of the chemical inducer of dimerization, AP20187, was added to induce apoptosis, which appeared within 24 hours.

Data set [1] relates to gene-modified allodepleted cells (SFG.iCasp9.2A.CD19). As to the kind of experiment: Suicide gene function after extended culture and reactivation. On the procedure:
Cells were maintained in T cell medium containing 50 U/ml IL-2 until 22 days after transduction. A portion of cells was reactivated on 24-well plates coated with […] OKT3 and 1 μg/ml anti-CD28 (Clone CD28.2, BD Pharmingen, San Jose, Calif.) for 48 to 72 hours. CD19 expression and suicide gene function in both reactivated and non-reactivated cells were measured on day 24 or 25 post transduction.
To assess the stability of transgene expression and function, cells were maintained in T cell culture medium and low dose IL-2 (50 U/ml) until […] after transduction. A portion of cells was then reactivated with OKT3/anti-CD28. CD19 expression was analyzed by flow cytometry 48 to 72 hours later, and suicide gene function was assessed by treatment with 10 nM AP20187. The obtained are for cells from day 5 post transduction (ie, 1 day after CD 19 selection) and day 24 post transduction, with or without 48-72 hours of reactivation (5 experiments). In 2 experiments, CD25 selection was performed after OKT3/aCD28 activation to further enrich activated cells. Error bars represent standard deviation. * indicates p<0.05 when compared to cells from day 5 post transduction. By day 24, surface CD19 expression fell from about 98%±1% to about 88%±4% (p<0.05) with a parallel decrease in mean fluorescence intensity (MFI) from 793±128 to 478±107 (p<0.05) (see FIG. 13B). Similarly, there was a significant reduction in suicide gene function: residual viability was 19.6±5.6% following treatment with AP20187; after correction for baseline viability of 54.8±20.9%, this equated to killing efficiency of only 63.1±6.2%.
To determine whether the decrease in transgene expression with time was due to reduced transcription following T cell quiescence or to elimination of transduced cells, a portion of cells were reactivated on day 22 post transduction with OKT3 and anti-CD28 antibody. […] CD19 expression increased from about 88%±4% to about 93%±4% (p<0.01) and CD19 MFI increased from 478±107 to 643±174 (p<0.01). […] 2±1.2%, which was the same as killing efficiency on day 5 post transduction (93.1±3.5%). Killing of the CD25 negative fraction was 78.6±9.1%.

In a further data set the test system is Jurkat cells. As to the kind of experiment: CID-induced apoptosis (annexin V) in transduced Jurkat cells. The settings on record: 10 nM CID for 8 hours.

Where “and” joins values, the source holds several entries; their conditions need not be identical. Equal values may be shown once.

As to `CC[C@H](C(=O)N1CCCC[C@H]1C(=O)O[C@H](CCc1ccc(OC)c(OC)c1)c1cccc(OCC(=O)NCC(CNC(=O)COc2cccc([C@@H](CCc3ccc(OC)c(OC)c3)OC(=O)[C@@H]3CCCCN3C(=O)[C@@H](CC)c3cc(OC)c(OC)c(OC)c3)c2)CN(C)C)c1)c1cc(OC)c(OC)c(OC)c1` [AP20187], the “viability of non-transduced cells with AP20187” value in the data set with non-transduced cells is on record as “about 86%±9%”. The compound also registered a killing in data set [1] (CD25 negative fraction) of 78.6±9.1%. In addition, the killing efficiency in data set [1] (OKT3/aCD28-reactivated cells, day 24 or 25) is ~84.6%±8.0%; in data set [1] (day 5 post transduction), 93.1±3.5%; in data set [1] (day 24 post transduction, non-reactivated), 63.1±6.2% and ~63.1%±6.2%. Also, in data set [1] (day 24 post transduction, non-reactivated, 10 nM), the “residual viability following treatment with AP20187” value was 19.6±5.6%. The “apoptosis (annexin-V staining)” value was 57.2%+/−18.9% in the data set on Jurkat cells (iCasp9M-transduced Jurkat) and 56.4%+/−15.6% in the data set with Jurkat cells (iFas-transduced Jurkat).

The values are drawn from patent US20220125837A1, “METHODS FOR CONTROLLED ELIMINATION OF THERAPEUTIC CELLS” (Bellicum Pharmaceuticals, Inc., priority 2014, published 2022).
